According to US7723523B2, “Tetrahydropyridothiophenes” (4SC AG, priority 2004, dated 2010):

Experiments:
[1] = test system: RKO (RKOp27) human colon adenocarcinoma cells; assay: Alamar Blue cell viability assay, anti-proliferative/cytotoxic activity on proliferating RKOp27 cells; type: cell-based; settings: absence of Ponasterone A, 72 hours incubation, read-out: IC50 RKO p27 proliferating
How it was run: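 RKOp27 subclone of RKO cells, 4000/well in DMEM with 10% FCS, was treated 24 h after seeding with semi-log compound dilutions in quadruplicate for 72 h at 37 °C, 5% CO2. Alamar Blue fluorescence (ex 544/em 590 nm) was read as % viability of untreated cells, and IC50 was taken from concentration-effect curves.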

[2] = test system: RKO colon adenocarcinoma cells (RKOp27) arrested by expression of ectopic p27Kip1; assay: Alamar Blue cell viability assay on RKOp27 cells arrested by Ponasterone A-induced p27Kip1 (cell cycle specific mode of action); type: cell-based; settings: Homo sapiens, RKOp27, 72 h, cells arrested by p27Kip1 induced with 10 μM Ponasterone A, 72 hours incubation, read-out: IC50 RKO p27 arrested
How it was run: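 Viability measured by Alamar Blue fluorescence (ex 544, em 590 nm) after 72 h, 37 °C compound exposure in quadruplicate, normalized to untreated cells as 100%. Cells were p27Kip1-arrested RKOp27, induced with 10 μM Ponasterone A at seeding; compound added 24 h later.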

IC50 [2] [µM] | SMILES | IC50 [1] [µM]
> 100 | CCOC(=O)N1CCc2c(sc(NC(=O)/C=C/c3ccccc3C)c2C#N)C1 [Example 12, 3-Cyano-2-((E)-3-o-tolyl-allanoylamino)-4,7-dihydro-5H-thieno[2,3-c]pyridine-6-carboxylic acid ethyl ester] | ≤ 2
> 100 | CC(C)(C)OC(=O)N1CCc2c(sc(NC(=O)/C=C/c3cccnc3)c2C#N)C1 [Example 32, 3-Cyano-2-((E)-3-pyridin-3-yl-allanoylamino)-4,7-dihydro-5H-thieno[2,3-c]pyridine-6-carboxylic acid tert-butyl ester] | ≤ 2
> 100 | CCOC(=O)N1CCc2c(sc(NC(=O)/C=C/c3ccsc3)c2C#N)C1 [Example 9, 3-Cyano-2-((E)-3-thiophen-3-yl-allanoylamino)-4,7-dihydro-5H-thieno[2,3-c]pyridine-6-carboxylic acid ethyl ester] | ≤ 2
≥ 100 | N#Cc1c(NC(=O)/C=C/c2ccccc2)sc2c1CCN(C(=O)Cn1ccnc1)C2 [Example 188, (E)-N-[3-Cyano-6-(2-imidazol-1-yl-ethanoyl)-4,5,6,7-tetrahydro-thieno[2,3-c]pyridin-2-yl]-3-phenyl-acrylamide] | ≤ 2
> 100 | COc1cccc(OC(=O)N2CCc3c(sc(NC(=O)/C=C/c4cccnc4)c3C#N)C2)c1 [Example 45, 3-Cyano-2-((E)-3-pyridin-3-yl-allanoylamino)-4,7-dihydro-5H-thieno[2,3-c]pyridine-6-carboxylic acid 3-methoxy-phenyl ester] | ≤ 2
≥ 100 | N#Cc1c(NC(=O)/C=C/c2ccco2)sc2c1CCN(C(=O)OCc1ccccn1)C2 [Example 241, 3-Cyano-2-((E)-3-furan-2-yl-allanoylamino)-4,7-dihydro-5H-thieno[2,3-c]pyridine-6-carboxylic acid pyridin-2-ylmethyl ester] | ≤ 2
> 100 | CCOC(=O)N1CCc2c(sc(NC(=O)/C=C/c3ccccc3C(F)(F)F)c2C#N)C1 [Example 23, 3-Cyano-2-[(E)-3-(2-trifluoromethyl-phenyl)-allanoylamino]-4,7-dihydro-5H-thieno[2,3-c]pyridine-6-carboxylic acid ethyl ester] | ≤ 2
> 100 | CCOC(=O)N1CCc2c(sc(NC(=O)/C=C/c3cccc(Cl)c3)c2C#N)C1 [Example 13, 2-[(E)-3-(3-Chloro-phenyl)-allanoylamino]-3-cyano-4,7-dihydro-5H-thieno[2,3-c]pyridine-6-carboxylic acid ethyl ester] | ≤ 2
≥ 100 | CCOC(=O)N1CCc2c(sc(NC(=O)/C=C/c3ccc4c(c3Br)OCO4)c2C#N)C1 [Example 232, 2-[(E)-3-(4-Bromo-benzo[1,3]dioxol-5-yl)-allanoylamino]-3-cyano-4,7-dihydro-5H-thieno[2,3-c]pyridine-6-carboxylic acid ethyl ester] | ≤ 2
≥ 100 | CC1(C)OCC(COC(=O)N2CCc3c(sc(NC(=O)/C=C/c4ccccc4)c3C#N)C2)O1 (stereo not shown) [Example 127, 3-Cyano-2-((E)-3-phenyl-allanoylamino)-4,7-dihydro-5H-thieno[2,3-c]pyridine-6-carboxylic acid 2,2-dimethyl-[1,3]dioxolan-4-ylmethyl ester] | ≤ 2
> 100 | COC(=O)N1CCc2c(sc(NC(=O)/C=C/c3cccnc3)c2C#N)C1 [Example 44, 3-Cyano-2-((E)-3-pyridin-3-yl-allanoylamino)-4,7-dihydro-5H-thieno[2,3-c]pyridine-6-carboxylic acid methyl ester] | ≤ 2
≥ 50 | N#Cc1c(NC(=O)/C=C/c2ccccc2)sc2c1CCN(C(=O)Cc1c[nH]c3ccccc13)C2 [Example 182, (E)-N-[3-Cyano-6-(2-1H-indol-3-yl-ethanoyl)-4,5,6,7-tetrahydro-thieno[2,3-c]pyridin-2-yl]-3-phenyl-acrylamide] | ≤ 0.5
≥ 100 | COc1ccccc1/C=C/C(=O)Nc1sc2c(c1C#N)CCN(C(=O)CCc1cccnc1)C2 [Example 206, (E)-N-[3-Cyano-6-(3-pyridin-3-yl-propanoyl)-4,5,6,7-tetrahydro-thieno[2,3-c]pyridin-2-yl]-3-(2-methoxy-phenyl)-acrylamide] | ≤ 2
≥ 100 | CCOC(=O)N1CCc2c(sc(NC(=O)/C=C/c3ccc(Cl)s3)c2C#N)C1 [Example 72, 2-[(E)-3-(5-Chloro-thiophen-2-yl)-allanoylamino]-3-cyano-4,7-dihydro-5H-thieno[2,3-c]pyridine-6-carboxylic acid ethyl ester] | ≤ 2
≥ 100 | CCOC(=O)N1CCc2c(sc(NC(=O)/C=C/c3cccc(Cl)c3F)c2C#N)C1 [Example 61, 3-Cyano-2-[(E)-3-(3-chloro-2-fluoro-phenyl)-allanoylamino]-4,7-dihydro-5H-thieno[2,3-c]pyridine-6-carboxylic acid ethyl ester] | ≤ 2
> 100 | CCOC(=O)N1CCc2c(sc(NC(=O)/C=C/c3ccoc3)c2C#N)C1 [Example 11, 3-Cyano-2-((E)-3-furan-3-yl-allanoylamino)-4,7-dihydro-5H-thieno[2,3-c]pyridine-6-carboxylic acid ethyl ester] | ≤ 2
≥ 100 | CCOC(=O)N1CCc2c(sc(NC(=O)/C=C/c3csc4ccccc34)c2C#N)C1 [Example 71, 2-((E)-3-Benzo[b]thiophen-3-yl-allanoylamino)-3-cyano-[4,7-d]hydro-5H-thieno[2,3-c]pyridine-6-carboxylic acid ethyl ester] | ≤ 2
≥ 50 | CCOC(=O)N1CCc2c(sc(NC(=O)/C=C/c3ccccc3OC(F)(F)F)c2C#N)C1 [Example 233, 3-Cyano-2-[(E)-3-(2-trifluoromethoxy-phenyl)-allanoylamino]-4,7-dihydro-5H-thieno[2,3-c]pyridine-6-carboxylic acid ethyl ester] | ≤ 0.5
> 100 | CCNC(=O)N1CCc2c(sc(NC(=O)/C=C/c3cccnc3)c2C#N)C1 [Example 38, 3-Cyano-2-((E)-3-pyridin-3-yl-allanoylamino)-4,7-dihydro-5H-thieno[2,3-c]pyridine-6-carboxylic acid ethylamide] | ≤ 2
≥ 100 | COCCC(=O)N1CCc2c(sc(NC(=O)/C=C/c3ccccc3OC)c2C#N)C1 [Example 211, (E)-N-[3-Cyano-6-(3-methoxy-propanoyl)-4,5,6,7-tetrahydro-thieno[2,3-c]pyridin-2-yl]-3-(2-methoxy-phenyl)-acrylamide] | ≤ 2
> 100 | CCOC(=O)N1CCc2c(sc(NC(=O)/C=C/c3ccccc3OC)c2C#N)C1 [Example 24, 3-Cyano-2-[(E)-3-(2-methoxy-phenyl)-allanoylamino]-4,7-dihydro-5H-thieno[2,3-c]pyridine-6-carboxylic acid ethyl ester] | ≤ 2
≥ 100 | N#Cc1c(NC(=O)/C=C/c2ccccc2)sc2c1CCN(C(=O)CCCO)C2 [Example 192, (E)-N-[3-Cyano-6-(4-hydroxy-butanoyl)-4,5,6,7-tetrahydro-thieno[2,3-c]pyridin-2-yl]-3-phenyl-acrylamide] | ≤ 2
≥ 100 | CCOC(=O)N1CCc2c(sc(NC(=O)/C=C/c3cccn3C)c2C#N)C1 [Example 97, 3-Cyano-2-[(E)-3-(1-methyl-1H-pyrrol-2-yl)-allanoylamino]-4,7-dihydro-5H-thieno[2,3-c]pyridine-6-carboxylic acid ethyl ester] | ≤ 2
≥ 100 | N#Cc1c(NC(=O)/C=C/c2ccco2)sc2c1CCN(C(=O)Cc1cccnc1)C2 [Example 228, (E)-N-[3-Cyano-6-(2-pyridin-3-yl-ethanoyl)-4,5,6,7-tetrahydro-thieno[2,3-c]pyridin-2-yl]-3-furan-2-yl-acrylamide] | ≤ 2
≥ 50 | N#Cc1c(NC(=O)/C=C/c2cccnc2)sc2c1CCN(C(=O)OC1CCCCC1)C2 [Example 168, 3-Cyano-2-((E)-3-pyridin-3-yl-allanoylamino)-4,7-dihydro-5H-thieno[2,3-c]pyridine-6-carboxylic acid cyclohexyl ester] | ≤ 0.5
≥ 100 | CCOC(=O)N1CCc2c(sc(NC(=O)/C=C/c3sccc3Cl)c2C#N)C1 [Example 64, 2-[(E)-3-(3-Chloro-thiophen-2-yl)-allanoylamino]-cyano-4,7-dihydro-5H-thieno[2,3-c]pyridine-6-carboxylic acid ethyl ester] | ≤ 2
≥ 100 | COCCOC(=O)N1CCc2c(sc(NC(=O)/C=C/c3ccccc3)c2C#N)C1 [Example 118, 3-Cyano-2-((E)-3-phenyl-allanoylamino)-4,7-dihydro-5H-thieno[2,3-c]pyridine-6-carboxylic acid 2-methoxy-ethyl ester] | ≤ 2
≥ 100 | CCOC(=O)N1CCc2c(sc(NC(=O)/C=C/c3c(OC)cccc3OC)c2C#N)C1 [Example 108, 3-Cyano-2-[(E)-3-(2,6-dimethoxy-phenyl)-allanoylamino]-4,7-dihydro-5H-thieno[2,3-c]pyridine-6-carboxylic acid ethyl ester] | ≤ 2
≥ 100 | CCOC(=O)N1CCc2c(sc(NC(=O)/C=C/c3ccccc3OC(C)C)c2C#N)C1 [Example 98, 3-Cyano-2-[(E)-3-(2-isopropoxy-phenyl)-allanoylamino]-4,7-dihydro-5H-thieno[2,3-c]pyridine-6-carboxylic acid ethyl ester] | ≤ 2
